Laboratory results published in article PMC9098178, “SAR of Novel 3-Arylisoquinolinones: meta-Substitution on the Aryl Ring Dramatically Enhances Antiproliferative Activity through Binding to Microtubules” (Journal of Medicinal Chemistry, 2022).
Where two headings read alike, the source gives them in different places.

Legend:
SNU423 = test: SRB antiproliferative assay, SNU423; format: cell-based, human; settings: Homo sapiens
Procedure: (§1) In light of this substantial change in activity between the meta and para compounds, a more comprehensive analysis of the antiproliferative activity was performed for the meta-/para-3-arylisoquinolinone pairs 2 and 3, 4, and 5, as well as 6. A panel of breast (MDA-MB-231), liver (HepG2, SNU423), lung (A549), and colon (HCT116) cancer cell lines were treated with the five 3-arylisoquinolinone analogs for 96 h followed by the SRB assay. The dose–response curves (including those for MCF-7) are presented in Figure S22, and their relevant IC50 values are listed in Table 1. […] The differential activity between meta- and para-3-arylisoquinolinones was reproduced in the National Cancer Institute (NCI) one-dose screen using a panel of 59 cancer cell lines (Figure S23).
All cell lines used in the study were human-derived and purchased from ATCC (Manassas, USA). Breast adenocarcinoma MCF-7 and MDA-MB-231 cell lines were cultured in DMEM. Hepatocellular carcinoma HepG2 and SNU423 cell lines were grown in MEME combined with 1% (v/v) nonessential amino acids and RPMI supplemented with 2 mM glutamine, respectively. Lung adenocarcinoma A549 and colorectal carcinoma HCT116 cells were grown in RPMI (+2 mM glutamine). All previous media were further supplemented with 10% heat-inactivated fetal bovine serum. The immortalized, normal liver THLE-3 cells were grown in BEGM (Lonza, Cat# CC-3170) onto precoated vessels according to ATCC’s instructions. Human umbilical vein endothelial cells (HUVECs) were cultured in EGM-2 (Lonza, Cat# CC-3162). All of the cells were maintained at 37 °C and 5% CO2 in a humidified incubator.
Screening of the antiproliferative activity of 3-arylisoquinolinones was performed using the SRB assay as previously described.[56] Exponentially growing HepG2, SNU423, MDA-MB-231, MCF-7, A549, HCT116, THLE-3, and HUVECs were seeded in 96-well plates at densities of 3000, 2000, 1500, 2500, 1000, 1000, 4000, and 4000 cells/well, respectively. These densities were experimentally selected so that the DMSO-treated cells (control) were approximately 80–90% confluent at the assay’s endpoint, and their optical density (OD) values fell within the assay’s linear range. […] After treatment, cell monolayers were fixed with 10% (w/v) trichloroacetic acid for 1 h at 4 °C, washed, and dried. Then, the cells were exposed to 0.4% (w/v) SRB dye (prepared in 1% (v/v) acetic acid; Botium, Cat# 80100) for 15 min followed by several 1% acetic acid washing and then drying. Finally, the cellular protein-bound SRB was thoroughly dissolved in 10 mM Tris base, and the OD values were read at 510 nm using a plate reader (μQuant Microplate Spectrophotometer, Biotek, U.K.) coupled with Gen5 software (BioTek, U.K.). Compound-induced changes in cell growth were inferred from changes in OD values. Cell growth was calculated using the following formula: cell growth (%) = (ODtest/ODcontrol) × 100.

HepG2 cells = test: Clonogenic assay; format: cell-based, human; settings: 14 days
Procedure: HepG2 cells were treated with varying concentrations of 2–6 added once and kept for 14 days before counting colonies and calculating surviving fraction (Figure 2).
The ability of potential anticancer agents to prevent unlimited cell division and induce reproductive cell death was assessed using clonogenic assay as previously described.[57] In brief, HepG2 cells were seeded into six-well plates at a density of 1000 single cells/well and incubated for 10–12 h to adhere. The cells were then treated with DMSO (control) or a range of concentrations of 2–6 for 14 days. Afterward, the produced colonies were washed with phosphate-buffered saline (PBS), fixed with 70% ethanol for 20 min, and stained with 0.5% (w/v) methylene blue (prepared in 70% methanol). Following washing with water and drying, colonies (≥50 cells) were manually counted. The colony-forming efficiency (CFE) of cells was calculated by dividing the number of colonies formed by the number of cells seeded for each condition. The surviving fraction was determined by dividing the CFE of the treated cells by CFE of the control cells. A survival curve was generated by plotting the log of drug concentrations versus surviving fraction.

[1] = test system: panel of 59 cancer cell lines; test: NCI one-dose screen; format: cell-based; settings: 10 µM, 48 h, SRB
Procedure: as §1
Figure S23. NCI One-Dose Mean graphs for 3-arylisoquinolinones 4, 5 […]
In NCI one-dose screen, the 59 cell lines (classified into 9 groups) were exposed to 4, 5 and 7 at a single dose of 10 µM for 48 h followed by SRB assay. The one-dose data were reported as a mean graph of the growth percentage of treated cells, as relative to the cell number of both the no-drug control and the zero time (before adding the test agent). Values between 0 and 100 indicate growth inhibition, whereas values less than 0 indicate lethality. For instance, a value of 40 means 60% growth inhibition; 0, no growth throughout the experiment; -40, 40% lethality; and - 100, all cells are dead.1
A) One-dose mean graph for 3-arylisoquinolinone 4 (NSC number 795055)

HUVECs [2] = test: Endothelial cell tube formation assay; format: cell-based, human; settings: 16 h, Matrigel
Procedure: (§2) Moreover, networks of HUVEC-based tubes were exposed for 16 h to different concentrations of 4 and 5 to assess their potential tube disruptive effects (Figure 8B). […] The disruption was more pronounced at 1 and 2 μM of 4, as evidenced by a decrease in tube junctions and formation of short distorted tubes.
(§3) Matrigel (Corning, Cat# 356237) was gently added into 96-well plates at a volume of 70 μL/well and allowed to gel at 37 °C for 30 min. A mixture of HUVECs (25 × 10^3) and DMSO, 4 (0.5, 1, 2 μM), or 5 (25 μM) was then dispensed over the gels and incubated for 16 h. Next, the wells were filled with PBS and covered with a coverslip to diminish the meniscus effect, allowing proper examination of the endothelial tube networks under a light microscope (Optika XDS-3, Italy). Bright-field images of 4x magnification were captured and then processed using Fiji ImageJ software. For the assessment of endothelial tube disruption, HUVECs at a density of 25 × 10^3 cells/well were seeded onto Matrigel and incubated for 4 h to align into tubes. The cells were then treated with DMSO, 4, or 5 for 16 h prior to the microscopic examination as mentioned above.

HUVECs [3] = test: Endothelial tube disruption assay; format: cell-based, human; settings: 16 h treatment after 4 h tube formation; concentration-dependent, more pronounced at 1 and 2 μM of 4
Procedure: as §2, §3

[4] = SNU-423, 96 h treatment, mean ± SEM, read-out: IC50 SNU423

| SMILES | IC50 (SNU423; [4]) | surviving fraction (HepG2 cells; concentrations as high as 20 μM) | inhibition of growth in NCI one-dose screen [1] | effect on capillary-like tube formation (HUVECs [2]; 25 μM) | disruption of preestablished capillary-like tubes (HUVECs [3]) | IC50 (SNU423; SNU-423, 24 h +drug/72 h –drug treatment, read-out: mean IC50 ± SEM, SNU423) | colony formation (HepG2 cells; 0.5 or 1 μM) | effect on capillary-like tube formation (HUVECs [2]; 2 μM) |
| --- | --- | --- | --- | --- | --- | --- | --- | --- |
| O=c1[nH]c(-c2ccc(F)cc2)cc2cc(F)ccc12 [compound 5, 6-Fluoro-3-(4-fluorophenyl)isoquinolin-1(2H)-one] | > 50000 nM | 0.5 | less active | did not significantly affect the process of tube formation | not observed |  |  |  |
| O=c1[nH]c(-c2cccc(F)c2)cc2cc(F)ccc12 [compound 4, 6-Fluoro-3-(3-fluorophenyl)isoquinolin-1(2H)-one] | 250 ± 30 nM |  | far more potent in the inhibition of growth of many of the cell lines |  | able to disrupt the preestablished capillary-like tubes | 360 ± 10 nM | No colonies were apparent | markedly suppressed tube formation |
